# Measured values: patent publication US8703922B2, “Low-viscosity liquid crystal compound” (Chemgenesis Incorporated, priority 2009, dated 2014)
# Columns and labels:
# Type in all cases: physicochemical
# [1] = Viscosity measurement with AR Rheometer (AR-G2) of the compounds of Examples 1-11; conditions: 25° C., after allowing to stand for 12 hours
# Method: (§1) The amphipathic compound according to the present invention is in a liquid or a semi-solid state with low viscosity within relatively a wide temperature range. The amphipathic compound according to the present invention preferably has viscosity of 11 Pa·s or less, generally 10 Pa·s or less, more preferably 4.0 Pa·s or less (e.g., 3.5 Pa·s or less), and further preferably 2.0 Pa·s or less, as measured using a viscometer at 25° C., for example. Such measured viscosity is typically measured at a shear rate of 105.7 l/s. To obtain such a measured value, an AR Rheometer (AR-G2, TA Instrument) or a viscosity and viscoelasticity measuring apparatus MARS (Thermo Fisher Scientific K.K.) can be used as a viscometer.
# The viscosity of each of the compounds shown in the Examples 1-11 was measured using AR Rheometer (AR-G2, TA Instrument) after allowing to stand at the temperature of 25° C. for 12 hours.
# [2] = Liquid crystal formation in compound/water system, analysed by small-angle X-ray scattering (SAXS); conditions: room temperature (25° C.); for Type of liquid crystal formed (SAXS peak ratio): 50 wt % (water-excess condition); for Lattice constant (ac) of the cubic liquid crystal: SAXS
# Source text: Whether or not a liquid crystal structure has a cubic lattice may be determined by a small-angle X-ray scattering (SAXS) method, for the purpose of confirming whether or not it is cubic liquid crystal. First, an amphipathic compound/water system sample with a predetermined concentration can be added to an X-ray capillary tube made of quartz, for example, and the capillary tube is sealed with an oxy-fuel burner, and subjected to SAXS assay.
# Ratio of Pn3m Cubic Liquid Crystal: √{square root over (2)}: √{square root over (3)}: √{square root over (4)}: √{square root over (6)}: √{square root over (8)}: √{square root over (9)}: √{square root over (10)}: , , , [Mathematical expression 1] Ratio of Ia3d Cubic Liquid Crystal: √{square root over (3)}: √{square root over (4)}: √{square root over (7)}: √{square root over (8)}: √{square root over (10)}: √{square root over (11)}: , , , [Mathematical expression 2] Ratio of Im3m Cubic Liquid Crystal: √{square root over (2)}: √{square root over (4)}: √{square root over (6)}: √{square root over (8)}: √{square root over (10)}: √{square root over (12)}: √{square root over (14)}: , , , [Mathematical expression 3]
# A peak value is calculated from SAXS data and then the reciprocal ratio is found therefrom according to a method known by persons skilled in the art, so that the space group and the lattice constant can be easily determined.
# Mono-O-(5,9,13,17-tetramethyloctadec-4-enoyl)pentaerythritol and pure water were introduced into a mixing device at the concentration of 50 wt % Mono-O-(5,9,13,17-tetramethyloctadec-4-enoyl)pentaerythritol (water-excess condition), and incubation thereof was carried out while performing 100 or more times of mixing operations at room temperature (25° C.) over the period of 24 hours. Thus, a homogeneously mixed sample of mono-O-(5,9,13,17-tetramethyloctadec-4-enoyl)pentaerythritol/water system was obtained. This sample of mono-O-(5,9,13,17-tetramethyloctadec-4-enoyl)pentaerythritol/water system appeared to be a white turbid gel composition.
# Subsequently, the thus obtained sample of mono-O-(5,9,13,17-tetramethyloctadec-4-enoyl)pentaerythritol/water system was confirmed to be a cubic liquid crystal by small-angle x-ray scattering (SAXS). The sample of mono-O-(5,9,13,17-tetramethyloctadec-4-enoyl)pentaerythritol/water system was introduced into a quartz X-ray capillary tube, the tip of the capillary was sealed using an oxygen burner, and the capillary tube was subjected to the SAXS analysis. The NANO-Viewer nano-scale X-ray structure analysis equipment (Rigaku) was used for SAXS analysis. SAXS analysis was performed by X-ray irradiation at room temperature (25° C.), 40 kV, 50 mA, wavelength λ=0.1542 nm (Cu-Kα) for 15 min.
# [3] = Viscosity measurement with viscosity and viscoelasticity measuring apparatus MARS (Example 179); conditions: 25° C., shear velocity 105.7 s^−1, MARS
# Method: as §1
# The viscosities of the amphiphilic compounds synthesized above were measured at 25° C. and at a shear velocity of 105.7 s^−1 using a viscosity and viscoelasticity measuring apparatus MARS (Thermo Fisher Scientific).
Molecule,Viscosity [1],Type of liquid crystal formed (SAXS peak ratio) [2],Lattice constant (ac) of the cubic liquid crystal [2],Viscosity (Pas · sec) [3]
"CC(=CCCCOC[C@H](O)[C@H](O)CO)CCCC(C)CCCC(C)CCCC(C)C (some centres unmarked) [1-O-(5,9,13,17-tetramethyloctadec-4-enyl)erythritol]",2.3 Pa·s,reverse hexagonal liquid crystal,,
"CC(=CCCCOC(CO)C(O)CO)CCCC(C)CCCC(C)CCCC(C)C (centres unmarked) [2-O-(5,9,13,17-tetramethyloctadec-4-enyl)erythritol]",3.2 Pa·s,cubic liquid crystal that belong to the crystallographic space group Pn3m,8.9 nm,
"CC(=CCCC(=O)OCC(CO)(CO)CO)CCCC(C)CCCC(C)CCCC(C)C (centres unmarked) [Example 1, mono-O-(5,9,13,17-tetramethyloctadec-4-enoyl)pentaerythritol]",1.7 Pa·s,cubic liquid crystal that belong to the crystallographic space group Pn3m,7.80 nm,
"CC(=CCCC(=O)OC[C@H](O)[C@H](O)CO)CCCC(C)CCCC(C)CCCC(C)C (some centres unmarked) [Example 2, mono-O-(5,9,13,17-tetramethyloctadec-4-enoyl)erythritol]",2.0 Pa·s,reverse hexagonal liquid crystal,,
"CC(=CCCC(=O)OCC(O)CO)CCCC(C)CCCC(C)CCCC(C)C (centres unmarked) [Example 3, mono-O-(5,9,13,17-tetramethyloctadec-4-enoyl)glycerol]",,cubic liquid crystal that belong to the crystallographic space group Pn3m,,
"CC(=CCCCOC1OCC(O)C(O)C1O)CCCC(C)CCCC(C)CCCC(C)C [Example 9, 1-O-(5,9,13,17-tetramethyloctadec-4-enyl)-D-xylopyranoside]",,cubic liquid crystal that belong to the crystallographic space group Pn3m,8.9 nm,
"CC(=CCCCOCC(CO)(CO)CO)CCCC(C)CCCC(C)CCCC(C)C (centres unmarked) [Example 10, mono-O-(5,9,13,17-tetramethyloctadec-4-enyl)pentaerythritol]",1.9 Pa·s,reverse hexagonal liquid crystal,,
"CC(=CCCCOCC(O)CO)CCCC(C)CCCC(C)CCCC(C)C (centres unmarked) [Example 31, mono-O-(5,9,13,17-tetramethyloctadec-4-enyl)glycerol]",,,,0.44 Pas · sec
"CC(=CCCCOCC(O)COCC(O)CO)CCCC(C)CCCC(C)CCCC(C)C (centres unmarked) [Example 32, mono-O-(5,9,13,17-tetramethyloctadec-4-enyl)diglycerol]",,cubic liquid crystal that belong to the crystallographic space group Pn3m,,
"CC(=CC(=O)OCC(O)CO)CCCC(C)CCCC(C)CCCC(C)C (centres unmarked) [Example 65, mono-O-(3,7,11,15-tetramethylhexadec-2-enoyl)glycerol]",,,,1.1 Pas · sec
"CC(=CC(=O)OCC(CO)(CO)CO)CCCC(C)CCCC(C)CCCC(C)C (centres unmarked) [Example 67, mono-O-(3,7,11,15-tetramethylhexadec-2-enoyl)pentaerythritol]",,,,10.6 Pas · sec
"CC(=CC(=O)OCC(O)COCC(O)CO)CCCC(C)CCCC(C)CCCC(C)C (centres unmarked) [Example 68, mono-O-(3,7,11,15-tetramethylhexadec-2-enoyl)diglycerol]",,,,9.5 Pas · sec
"CC(=CCOCC(O)CO)CCCC(C)CCCC(C)CCCC(C)C (centres unmarked) [Example 80, mono-O-(3,7,11,15-tetramethylhexadec-2-enyl)glycerol]",,,,0.45 Pas · sec
"CC(=CCOCC(CO)(CO)CO)CCCC(C)CCCC(C)CCCC(C)C (centres unmarked) [Example 82, mono-O-(3,7,11,15-tetramethylhexadec-2-enyl)pentaerythritol]",,,,4.0 Pas · sec
"CC(=CCCC(=O)OCC(O)CO)CCCC(C)CCCC(C)C (centres unmarked) [Example 92, mono-O-(5,9,13-trimethyltetradec-4-enoyl)glycerol]",,mixture of a cubic liquid crystal that belong to the crystallographic space group Pn3m and a reverse hexagonal liquid crystal,,0.48 Pas · sec
"CC(=CCCC(=O)OCC(O)COCC(O)CO)CCCC(C)CCCC(C)C (centres unmarked) [Example 95, mono-O-(5,9,13-trimethyltetradec-4-enoyl)diglycerol]",,,,10.5 Pas · sec
"CC(=CCCCOC1OCC(O)C(O)C1O)CCCC(C)CCCC(C)C [Example 103, 1-O-(5,9,13-trimethyltetradec-4-enyl)-D-xylopyranoside]",,cubic liquid crystal that belong to the crystallographic space group Pn3m,,
"CC(=CCCCOCC(O)CO)CCCC(C)CCCC(C)C (centres unmarked) [Example 107, mono-O-(5,9,13-trimethyltetradec-4-enyl)glycerol]",,reverse hexagonal liquid crystal,,
"CC(=CCCCOCC(CO)(CO)CO)CCCC(C)CCCC(C)C (centres unmarked) [Example 109, mono-O-(5,9,13-trimethyltetradec-4-enyl)pentaerythritol]",,,,0.98 Pas · sec
"CC(=CCCCOCC(O)COCC(O)CO)CCCC(C)CCCC(C)C (centres unmarked) [Example 110, mono-O-(5,9,13-trimethyltetradec-4-enyl)diglycerol]",,,,1.7 Pas · sec
"CC(=CCC(=O)OCC(O)CO)CCCC(C)CCCC(C)C (centres unmarked) [Example 120, mono-O-(4,8,12-trimethyltridec-3-enoyl)glycerol]",,cubic liquid crystal that belong to the crystallographic space group Pn3m,,
"CC(=CC(=O)OCC(O)CO)CCCC(C)CCCC(C)C (centres unmarked) [Example 146, mono-O-(3,7,11-trimethyldodec-2-enoyl)glycerol]",,cubic liquid crystal that belong to the crystallographic space group Pn3m,,0.45 Pas · sec
"CC(=CC(=O)OC[C@H](O)[C@H](O)CO)CCCC(C)CCCC(C)C (some centres unmarked) [Example 147, mono-O-(3,7,11-trimethyldodec-2-enoyl)erythritol]",,,,7.1 Pas · sec
"CC(=CC(=O)OCC(O)COCC(O)CO)CCCC(C)CCCC(C)C (centres unmarked) [Example 149, mono-O-(3,7,11-trimethyldodec-2-enoyl)diglycerol]",,,,6.9 Pas · sec
"CC(=CCOCC(CO)(CO)CO)CCCC(C)CCCC(C)C (centres unmarked) [Example 163, mono-O-(3,7,11-trimethyldodec-2-enyl)pentaerythritol]",,,,2.7 Pas · sec
"CC(=CCOC[C@H](O)[C@@H](O)[C@H](O)CO)CCCC(C)CCCC(C)C (some centres unmarked) [Example 166, mono-O-(3,7,11-trimethyldodec-2-enyl)xylitol]",,,,1.1 Pas · sec
"mono-O-(5,9,13,17-tetramethyloctadec-4-enoyl)di glycerol [Example 4]",,reverse hexagonal liquid crystal,,4.5 Pas · sec
